# In patent publication US7407794B2, “Biological control of plant diseases” (The Horticulture and Food Research Institute of New Zealand …, priority 2001, dated 2008):
# Test system: Botrytis cinerea
# Test: Necrotic leaf disc bioassay with interrupted wet period (laboratory)
# Assay type: cell-based
# Conditions: Table 2, necrotic kiwifruit leaf tissues, repeat bioassay
# Experimental: Discs (dia. 21 mm) were cut from mature unsprayed grape or kiwifruit leaves selected at random and placed between sheets of cardboard. The discs were gently dried at 40° C. for approximately 9 hours and then washed under running water for 10 minutes to remove any soluble nutrients. The leaf discs were then blot dried once more on sterile paper towels, dried at 40° C. for 6 hours, then sealed in plastic specimen jars, prior to sterilization by gamma-irradiation (4Mrad).
# Isolates were maintained on oatmeal agar (30 g finely ground oatmeal plus 20 g agar per litre of water) and incubated for 2 to 4 weeks at 20° C. illuminated according to a 12 hours day/night cycle. Fungal propagules were washed from the sporulating agar plates using sterile 0.01% (v/v) TWEEN®80 (polyoxyethylenesorbitan monooleate) in distilled water. […]
# High humidity incubation was interrupted by transferring the leaf disks from the humidity chambers to open petri dishes containing 2 layers of sterile dry (Whatman) filter disks. […] The area of leaf disk tissue with B. cinerea sporulation was assessed visually. […]
# Prior to analysis of variance, all data were arcsin transformed using an angular transformation to stabilise the variance and LSD values were calculated for purposes of mean separation […]
smiles,measurement,value
CC(C)NC(=O)N1CC(=O)N(c2cc(Cl)cc(Cl)c2)C1=O [iprodione],% coverage of necrotic leaf tissue by B. cinerea conidiophores,20%
same,"Antagonist efficacy, percentage reduction of B. cinerea conidiophores compared to the B. cinerea control treatment",20%
